Test results reported in PubChem BioAssay (NCI).
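48-hour exposure; five concentrations; linearly interpolated endpoints. Here, GI50 denotes the concentration required for 50% inhibition of growth. Definition used: TGI = concentration required for complete inhibition of growth.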

Legend:
Assay in all cases: NCI tumour cell line growth inhibition, 48 h
[1] = system: OVCAR-8 ovarian
[2] = system: MDA-MB-231 breast
[3] = system: UO-31 renal
[4] = system: HCT-15 colon
[5] = system: T-47D breast
[6] = system: HCC-2998 colon
[7] = system: SK-MEL-5 melanoma
[8] = system: NCI-H522 lung
[9] = system: HT29 colon
[10] = system: UACC-257 melanoma
[11] = system: HL-60(TB) leukemia
[12] = system: UACC-62 melanoma
[13] = system: RXF 393 renal
[14] = system: SN12C renal
[15] = system: 786-0 renal
[16] = system: OVCAR-3 ovarian
[17] = system: ACHN renal
[18] = system: CAKI-1 renal
[19] = system: KM12 colon
[20] = system: SK-OV-3 ovarian
[21] = system: PC-3 prostate
[22] = system: SK-MEL-2 melanoma
[23] = system: OVCAR-5 ovarian
[24] = system: SF-295 CNS
[25] = system: A549 NSCLC
[26] = system: DU-145 prostate
[27] = system: EKVX NSCLC
[28] = system: SF-268 CNS
[29] = system: RPMI-8226 leukemia
[30] = system: MDA-MB-435
[31] = system: SR leukemia
[32] = system: SNB-19 CNS
[33] = system: CCRF-CEM leukemia
[34] = system: K-562 leukemia
[35] = system: NCI-H226 lung
[36] = system: MCF7 breast
[37] = system: SW-620 colon
[38] = system: A498 renal
[39] = system: OVCAR-4 ovarian
[40] = system: HOP-92 NSCLC
[41] = system: HS 578T breast
[42] = system: HOP-62 NSCLC
[43] = system: LOX IMVI melanoma
[44] = system: M14 melanoma
[45] = system: NCI-H23 lung
[46] = system: MALME-3M melanoma
[47] = system: IGROV1 ovarian
[48] = system: MOLT-4 leukemia
[49] = system: SF-539 CNS
[50] = system: NCI/ADR-RES ovarian
[51] = system: HCT-116 colon
[52] = system: BT-549 breast
[53] = system: SNB-75 CNS
[54] = system: U251 CNS
[55] = system: SK-MEL-28 melanoma
[56] = system: TK-10 renal
[57] = system: NCI-H460 lung
[58] = system: COLO 205 colon

CCCN(CCC)c1ccc(CO)c(Cl)c1
GI50 [1]: 34.9 µM
TGI [1]: > 100 µM
GI50 [2]: 31.6 µM
TGI [2]: > 68.4 µM
GI50 [3]: 35.4 µM
TGI [3]: > 100 µM
GI50 [4]: 20.4 µM
TGI [4]: > 80.9 µM
GI50 [5]: 0.459 µM
TGI [5]: 2.91 µM
GI50 [6]: 13.5 µM
TGI [6]: 48.2 µM
GI50 [7]: 12.9 µM
TGI [7]: 27.3 µM
GI50 [8]: 16.4 µM
TGI [8]: 38.9 µM
GI50 [9]: 9.75 µM
TGI [9]: > 52.4 µM
GI50 [10]: 0.352 µM
TGI [10]: 1.49 µM
GI50 [11]: 19.5 µM
TGI [11]: 44.6 µM
GI50 [12]: 0.485 µM
TGI [12]: 4.79 µM
GI50 [13]: 7.37 µM
TGI [13]: 29.5 µM
GI50 [14]: 39.2 µM
TGI [14]: > 100 µM
GI50 [15]: 16.8 µM
TGI [15]: 45.6 µM
GI50 [16]: 1.62 µM
TGI [16]: 5.07 µM
GI50 [17]: 38.5 µM
TGI [17]: > 100 µM
GI50 [18]: 5.77 µM
TGI [18]: 50.6 µM
GI50 [19]: 35 µM
TGI [19]: > 100 µM
GI50 [20]: 31.3 µM
TGI [20]: > 100 µM
GI50 [21]: 22.8 µM
TGI [21]: 89.6 µM
GI50 [22]: 9.47 µM
TGI [22]: 33.9 µM
GI50 [23]: 0.257 µM
TGI [23]: 0.718 µM
GI50 [24]: 5.45 µM
TGI [24]: > 78.9 µM
GI50 [25]: 7.2 µM
TGI [25]: > 63 µM
GI50 [26]: 52 µM
TGI [26]: > 100 µM
GI50 [27]: 18.2 µM
TGI [27]: 59 µM
GI50 [28]: 47.3 µM
TGI [28]: > 100 µM
GI50 [29]: 5.93 µM
TGI [29]: 28.9 µM
GI50 [30]: 37.1 µM
TGI [30]: > 100 µM
GI50 [31]: 19.3 µM
TGI [31]: 45.9 µM
GI50 [32]: > 63.8 µM
TGI [32]: > 100 µM
GI50 [33]: 17.4 µM
TGI [33]: 51.7 µM
GI50 [34]: 6.21 µM
TGI [34]: 37.7 µM
GI50 [35]: 0.166 µM
TGI [35]: 0.419 µM
GI50 [36]: 1.23 µM
TGI [36]: 33 µM
GI50 [37]: 6.41 µM
TGI [37]: > 100 µM
GI50 [38]: 0.117 µM
TGI [38]: 0.253 µM
GI50 [39]: 1.21 µM
TGI [39]: 7.79 µM
GI50 [40]: 9.43 µM
TGI [40]: 31.2 µM
GI50 [41]: 25 µM
TGI [41]: > 91.9 µM
GI50 [42]: 8.25 µM
TGI [42]: > 100 µM
GI50 [43]: 30.4 µM
TGI [43]: > 100 µM
GI50 [44]: 37.5 µM
TGI [44]: 97.4 µM
GI50 [45]: 23.2 µM
TGI [45]: > 100 µM
GI50 [46]: 29.1 µM
TGI [46]: > 78.5 µM
GI50 [47]: 0.401 µM
TGI [47]: 2.41 µM
GI50 [48]: 23.3 µM
TGI [48]: 62.6 µM
GI50 [49]: 40.2 µM
TGI [49]: > 100 µM
GI50 [50]: 23.6 µM
TGI [50]: > 89.7 µM
GI50 [51]: 0.44 µM
TGI [51]: 7.88 µM
GI50 [52]: 22 µM
TGI [52]: > 60.2 µM
GI50 [53]: 25.8 µM
TGI [53]: > 96.7 µM
GI50 [54]: 10.3 µM
TGI [54]: > 100 µM
GI50 [55]: 42.5 µM
TGI [55]: > 100 µM
GI50 [56]: 0.223 µM
TGI [56]: 0.663 µM
GI50 [57]: 2.13 µM
TGI [57]: 32.1 µM
GI50 [58]: 3.5 µM
TGI [58]: 10.1 µM
